Experimental findings from the supplement of paper PMC10307832 are described below.

Common to all, as to assay: relative viability (nuclei count vs DMSO), 5 days (fraction); higher = more cells survive
Compound in the experiment “Ispinesib + Pemetrexed”: Cc1ccc(C(=O)N(CCCN)[C@@H](c2nc3cc(Cl)ccc3c(=O)n2Cc2ccccc2)C(C)C)cc1 [Ispinesib] + Nc1nc2[nH]cc(CCc3ccc(C(=O)N[C@@H](CCC(=O)O)C(=O)O)cc3)c2c(=O)[nH]1 [Pemetrexed] (partner 0.2 µM)
The method, boiled down:
(§1)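 Dosing by pin tool came one day after lung cancer cell lines were seeded in 1536-well plates, using either one drug or a fixed anchor-drug dose plus five library-drug doses (not always all listed) in √10 steps. After 5 days, nuclei were counted on 4× images. Relative viability is treated-well nuclei count divided by vehicle-well nuclei count, and values are medians of duplicate plates.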

Compound in the experiment “Linsitinib + Bortezomib”: C[C@]1(O)C[C@@H](c2nc(-c3ccc4ccc(-c5ccccc5)nc4c3)c3c(N)nccn32)C1 [Linsitinib] + CC(C)C[C@H](NC(=O)[C@H](Cc1ccccc1)NC(=O)c1cnccn1)B(O)O [Bortezomib] (partner 0.002 µM)
The method, boiled down:
as §1

Compound in the experiment “Linsitinib + Dasatinib”: C[C@]1(O)C[C@@H](c2nc(-c3ccc4ccc(-c5ccccc5)nc4c3)c3c(N)nccn32)C1 [Linsitinib] + Cc1nc(Nc2ncc(C(=O)Nc3c(C)cccc3Cl)s2)cc(N2CCN(CCO)CC2)n1 [Dasatinib] (partner 0.075 µM)
The method in brief: as §1

Compound in the experiment “Ispinesib + Vorinostat”: Cc1ccc(C(=O)N(CCCN)[C@@H](c2nc3cc(Cl)ccc3c(=O)n2Cc2ccccc2)C(C)C)cc1 [Ispinesib] + O=C(CCCCCCC(=O)Nc1ccccc1)NO [Vorinostat] (partner 1 µM)
The method in brief:
as §1

Regarding UMC-11, the relative viability turned out to be 0.844 in the experiment with Ispinesib + Pemetrexed (first compound 0.001 µM); 0.829 with Ispinesib + Pemetrexed (first compound 0.003162 µM); 0.868 with Ispinesib + Pemetrexed (first compound 0.01 µM); 0.451 with Ispinesib + Pemetrexed (first compound 0.03162 µM); 0.235 in the experiment with Ispinesib + Pemetrexed (first compound 0.1 µM); 0.693 with Linsitinib + Bortezomib (first compound 0.01 µM). The relative viability with Linsitinib + Bortezomib (first compound 0.03162 µM) came to 0.621; in the experiment with Linsitinib + Bortezomib (first compound 0.1 µM), 0.829; in the experiment with Linsitinib + Bortezomib (first compound 1 µM) it was 0.752; with Linsitinib + Dasatinib (first compound 0.01 µM) it was 0.462; with Linsitinib + Dasatinib (first compound 0.03162 µM), 0.44; in the experiment with Linsitinib + Dasatinib (first compound 0.1 µM) it was 0.501. For the same cell line, the relative viability is 0.438 with Linsitinib + Dasatinib (first compound 1 µM); 0.308 with Ispinesib + Vorinostat (first compound 0.001 µM); 0.459 in the experiment with Ispinesib + Vorinostat (first compound 0.003162 µM); 0.327 with Ispinesib + Vorinostat (first compound 0.01 µM); 0.281 with Ispinesib + Vorinostat (first compound 0.03162 µM); 0.319 with Ispinesib + Vorinostat (first compound 0.1 µM).
